As a reminder, the Ki is the dissociation constant of the complex between target and ligand, obtained from inhibition or displacement. By inhibition is commonly meant the percentage by which the read-out fell short of the control. A low value points to a weak effect.

Test [1] has as its target T1, hA3AR (Homo sapiens, UniProt P0DMS8).
T1 sequence (P0DMS8 1-318): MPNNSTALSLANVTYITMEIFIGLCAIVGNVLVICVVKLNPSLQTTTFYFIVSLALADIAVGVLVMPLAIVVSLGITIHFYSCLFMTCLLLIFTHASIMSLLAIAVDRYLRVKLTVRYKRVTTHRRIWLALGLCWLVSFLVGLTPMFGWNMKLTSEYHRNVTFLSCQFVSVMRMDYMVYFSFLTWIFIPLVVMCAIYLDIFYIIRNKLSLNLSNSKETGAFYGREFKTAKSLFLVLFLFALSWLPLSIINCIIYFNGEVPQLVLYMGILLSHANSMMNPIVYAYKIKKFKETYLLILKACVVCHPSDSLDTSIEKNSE
Kind of test: Radioligand competition binding assay at hA3AR ([3H]NECA). Further details: expressed in transfected cells; host or cells: HeLa-A3 cell line (membranes prepared in laboratory). The note with it: 0.5 nM [3H]NECA; mean ± SEM (n = 2); read-out: Affinity, Ki, hA3AR. For orientation: Loss of bound radioactivity is the signal in a displacement assay; it reports binding, not function.

For test [2], the target named is T2, hA2AAR (Homo sapiens, UniProt P29274).
T2 construct: expressed in transfected cells; host or cells: HeLa-A2A cells (membranes)
Kind of test: Radioligand competition binding assay at hA2AAR ([3H]ZM241385). As to the method: Adenosine A2A receptor competition binding experiments were carried out in membranes from HeLa-A2A cells. On the day of assay, membranes were defrosted and re-suspended in incubation buffer 50 mM Tris-HCl, 1 mM EDTA, 10 mM MgCl2 and 2 UI/mL adenosine deaminase (pH = 7.4). Each reaction well of a GF/C multiscreen plate (Millipore, Madrid, Spain), prepared in duplicate, contained 10 μg of protein, 3 nM [^3H]ZM241385 and test compound. Nonspecific binding was determined in the presence of 50 μM NECA. The reaction mixture was incubated at 25 °C for 30 min, after which samples were filtered and measured in a microplate beta scintillation counter (Microbeta Trilux, Perkin Elmer, Madrid, Spain).

Test [3] concerns the target T3, hA1AR (Homo sapiens, UniProt P30542).
T3 construct: host or cells: CHO-A1 cells (membranes)
T3 sequence (P30542 1-326): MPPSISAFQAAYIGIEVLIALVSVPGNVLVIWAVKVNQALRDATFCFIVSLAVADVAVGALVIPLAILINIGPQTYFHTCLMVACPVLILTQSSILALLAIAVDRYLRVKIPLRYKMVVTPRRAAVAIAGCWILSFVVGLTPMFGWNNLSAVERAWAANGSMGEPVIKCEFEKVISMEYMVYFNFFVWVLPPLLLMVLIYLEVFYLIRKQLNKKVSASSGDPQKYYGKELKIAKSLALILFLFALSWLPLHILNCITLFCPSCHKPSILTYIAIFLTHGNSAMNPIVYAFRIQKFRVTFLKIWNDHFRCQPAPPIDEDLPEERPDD
As to the kind of experiment: Radioligand competition binding assay at hA1AR ([3H]DPCPX). As to the method: Adenosine A1 receptor competition binding experiments were carried out in membranes from CHO-A1 cells (Euroscreen, Gosselies, Belgium). On the day of assay, membranes were defrosted and re-suspended in incubation buffer 20 mM Hepes, 100 mM NaCl, 10 mM MgCl2, 2 UI/mL adenosine deaminase (pH = 7.4). Each reaction well of a GF/C multiscreen plate (Millipore, Madrid, Spain), prepared in duplicate, contained 15 μg of protein, 2 nM [^3H]DPCPX and test compound. Nonspecific binding was determined in the presence of 10 μM (R)-PIA. The reaction mixture was incubated at 25 °C for 60 min, after which samples were filtered and measured in a microplate beta scintillation counter (Microbeta Trilux, Perkin Elmer, Madrid, Spain).

Test [4] addresses T4, hA2BAR (Homo sapiens, UniProt P29275).
T4 construct: host or cells: HEK-293-A2B cells (membranes)
T4 sequence (P29275 1-332): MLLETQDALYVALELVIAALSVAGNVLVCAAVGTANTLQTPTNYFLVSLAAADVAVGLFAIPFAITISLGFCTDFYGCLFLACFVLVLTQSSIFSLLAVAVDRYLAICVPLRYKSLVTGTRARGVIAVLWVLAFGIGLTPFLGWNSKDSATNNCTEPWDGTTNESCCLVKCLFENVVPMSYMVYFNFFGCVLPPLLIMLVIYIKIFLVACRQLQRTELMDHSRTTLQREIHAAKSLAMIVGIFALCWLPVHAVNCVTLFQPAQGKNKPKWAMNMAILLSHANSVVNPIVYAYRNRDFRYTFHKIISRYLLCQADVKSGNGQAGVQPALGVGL
Kind of test: Radioligand competition binding assay at hA2BAR ([3H]DPCPX). As for the experimental part:
Adenosine A2B receptor competition binding experiments were carried out in membranes from HEK-293-A2B cells (Euroscreen, Gosselies, Belgium) prepared following the provider’s protocol. On the day of assay, membranes were defrosted and re-suspended in incubation buffer 50 mM Tris-HCl, 1 mM EDTA, 10 mM MgCl2, 0.1 mM benzamidine, 10 μg/mL bacitracine and 2 UI/mL adenosine deaminase (pH = 6.5). Each reaction well prepared in duplicate contained 18 μg of protein, 35 nM [^3H]DPCPX and test compound. Nonspecific binding was determined in the presence of 400 μM NECA. The reaction mixture was incubated at 25 °C for 30 min, after which samples were filtered through a multiscreen GF/C microplate and measured in a microplate beta scintillation counter (Microbeta Trilux, Perkin Elmer, Madrid, Spain).

Test [5] concerns the target T1, hA3AR. Kind of test: Cyclic AMP accumulation functional assay at hA3AR expressed in CHO cells. The test is classed as cell-based. Details: expressed in transfected cells. As for the experimental part: Human adenosine A3 receptor functional experiments were carried out in CHO-A3#18 cell line. The day before the assay, the cells were seeded on the 96-well culture plate (Falcon 353072, Corning, Glendale, AZ, USA). The cells are washed with wash buffer (Dulbecco’s modified eagle’s medium nutrient mixture F-12 ham (Sigma D8062), 25 mM Hepes; pH = 7.4). Wash buffer is replaced by incubation buffer (Dulbecco’s modified eagle’s medium nutrient mixture F-12 ham (Sigma D8062), 25 mM Hepes, 30 μM Rolipram (Sigma R6520); pH = 7.4). Test compounds and MRS1220 as reference compound (Sigma M228) are added and the cells incubated at 37 °C for 15 min. After, 0.1 μM of 5′-N-ethylcarboxamido-adenosine (NECA) (Sigma E2387) is added and the cells incubated at 37 °C for 10 min. Forskolin (Sigma F3917, Sigma-Aldrich, St. Louis, MO, USA) is added and incubated at 37 °C for 5 min. After incubation, the amount of cAMP is determined using a cAMP Biotrak Enzymeimmunoassay (EIA) System Kit (GE Healthcare RPN225, GE Healthcare, Chicago, IL, USA).

T2 sequence (P29274 whole entry): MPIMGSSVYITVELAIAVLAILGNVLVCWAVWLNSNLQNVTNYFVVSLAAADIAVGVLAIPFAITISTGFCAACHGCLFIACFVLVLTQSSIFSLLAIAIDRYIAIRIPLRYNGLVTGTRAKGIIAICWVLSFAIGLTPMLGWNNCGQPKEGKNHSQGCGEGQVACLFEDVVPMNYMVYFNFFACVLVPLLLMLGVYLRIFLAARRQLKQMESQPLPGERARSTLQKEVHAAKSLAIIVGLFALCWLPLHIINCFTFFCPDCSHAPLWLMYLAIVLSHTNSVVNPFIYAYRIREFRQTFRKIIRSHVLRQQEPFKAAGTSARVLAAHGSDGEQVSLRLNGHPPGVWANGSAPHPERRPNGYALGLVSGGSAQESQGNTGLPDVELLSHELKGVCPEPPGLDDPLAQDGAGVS

With `CN(C)C(=O)[C@H]1[Se][C@@H](n2cnc3c(N)ncnc32)[C@H](O)[C@@H]1O` [Compound 9a, (2S,3S,4R,5R)-5-(6-amino-9H-purin-9-yl)-3,4-dihydroxy-N,N-dimethyltetra hydroselenophene-2-carboxamide], the Ki in test [1] was 3710 ± 600 nM. Besides, the inhibition at 10 µM in test [2] was determined as 22%; in test [3], 16%; in test [4] it was 17%.
On the same counts, the results for `CNc1ncnc2c1ncn2[C@@H]1[Se][C@H](C(=O)N(C)C)[C@@H](O)[C@H]1O` [Compound 9b, (2S,3S,4R,5R)-3,4-dihydroxy-N,N-dimethyl-5-(6-(methylamino)-9H-purin-9-yl)tetrahydroselenophene-2-carboxamide] are 609 ± 47 nM, 3%, 9% and 9%.
The corresponding values for `CN(C)C(=O)[C@H]1[Se][C@@H](n2cnc3c(NCc4cccc(F)c4)ncnc32)[C@H](O)[C@@H]1O` [Compound 9c, (2S,3S,4R,5R)-5-(6-((3-fluorobenzyl)amino)-9H-purin-9-yl)-3,4-dihydroxy-N,N-dimethyltetrahydroselenophene-2-carboxamide] are 2020 ± 170 nM, 12%, 13% and 19%.
The corresponding values for `CN(C)C(=O)[C@H]1[Se][C@@H](n2cnc3c(NCc4cccc(Cl)c4)ncnc32)[C@H](O)[C@@H]1O` [Compound 9d, (2S,3S,4R,5R)-5-(6-((3-chlorobenzyl)amino)-9H-purin-9-yl)-3,4-dihydroxy-N,N-dimethyltetrahydroselenophene-2-carboxamide] are 1190 ± 160 nM, 4%, 23% and 15%.
Regarding `CN(C)C(=O)[C@H]1[Se][C@@H](n2cnc3c(NCc4cccc(Br)c4)ncnc32)[C@H](O)[C@@H]1O` [Compound 9e, (2S,3S,4R,5R)-5-(6-((3-bromobenzyl)amino)-9H-purin-9-yl)-3,4-dihydroxy-N,N-dimethyltetrahydroselenophene-2-carboxamide], the Ki in test [1] came out at 36.3 ± 12.7 nM. Further, the inhibition at 10 µM in test [2] came out at 37%; in test [3], 43%.
As to `CN(C)C(=O)[C@H]1[Se][C@@H](n2cnc3c(NCc4cccc(I)c4)ncnc32)[C@H](O)[C@@H]1O` [Compound 9f, (2S,3S,4R,5R)-3,4-dihydroxy-5-(6-((3-iodobenzyl)amino)-9H-purin-9-yl)-N,N-dimethyltetrahydroselenophene-2-carboxamide], in test [1], the Ki was determined as 22.7 ± 8.9 nM. In addition, the inhibition at 10 µM is 32% in test [2] and 36% in test [3].
On to `CN(C)C(=O)[C@H]1[Se][C@@H](n2cnc3c(N)nc(Cl)nc32)[C@H](O)[C@@H]1O` [Compound 9g, (2S,3S,4R,5R)-5-(2-chloro-6-amino-9H-purin-9-yl)-3,4-dihydroxy-N,N-dimethyltetrahydroselenophene-2-carboxamide], for which, in test [1], the inhibition constant (Ki) amounted to 3250 ± 370 nM. In addition, the results for the inhibition at 10 µM in test [2], in test [3] and in test [4] were 3%, 9% and 25%, respectively.
On the same counts, the results for `CNc1nc(Cl)nc2c1ncn2[C@@H]1[Se][C@H](C(=O)N(C)C)[C@@H](O)[C@H]1O` [Compound 9h, (2S,3S,4R,5R)-5-(2-chloro-6-(methylamino)-9H-purin-9-yl)-3,4-dihydroxy-N,N-dimethyltetrahydroselenophene-2-carboxamide] are 1060 ± 140 nM, 5%, 58% and 19%.
The corresponding values for `CN(C)C(=O)[C@H]1[Se][C@@H](n2cnc3c(NCc4cccc(F)c4)nc(Cl)nc32)[C@H](O)[C@@H]1O` [Compound 9i, (2S,3S,4R,5R)-5-(2-chloro-6-((3-fluorobenzyl)amino)-9H-purin-9-yl)-3,4-dihydroxy-N,N-dimethyltetrahydroselenophene-2-carboxamide] are 238 ± 37 nM, 9%, 34% and 14%.
On the same counts, the results for `CN(C)C(=O)[C@H]1[Se][C@@H](n2cnc3c(NCc4cccc(Cl)c4)nc(Cl)nc32)[C@H](O)[C@@H]1O` [Compound 9j, (2S,3S,4R,5R)-5-(2-chloro-6-((3-chlorobenzyl)amino)-9H-purin-9-yl)-3,4-dihydroxy-N,N-dimethyltetrahydroselenophene-2-carboxamide] are 195 ± 40 nM, 13%, 63% and 27%.
On to `CN(C)C(=O)[C@H]1[Se][C@@H](n2cnc3c(NCc4cccc(Br)c4)nc(Cl)nc32)[C@H](O)[C@@H]1O` [Compound 9k, (2S,3S,4R,5R)-5-(6-((3-bromobenzyl)amino)-2-chloro-9H-purin-9-yl)-3,4-dihydroxy-N,N-dimethyltetrahydroselenophene-2-carboxamide], for which the Ki in test [1] was found to be 180 ± 12 nM. Moreover, the values for the inhibition at 10 µM in test [2], in test [3] and in test [4] were 10%, 58% and 27%, respectively.
Take `CN(C)C(=O)[C@H]1[Se][C@@H](n2cnc3c(NCc4cccc(I)c4)nc(Cl)nc32)[C@H](O)[C@@H]1O` [Compound 9l, (2S,3S,4R,5R)-5-(2-chloro-6-((3-iodobenzyl)amino)-9H-purin-9-yl)-3,4-dihydroxy-N,N-dimethyltetrahydroselenophene-2-carboxamide]: the Ki in test [1] was 253 ± 29 nM. The inhibition at 10 µM in test [2] came out at 10%; in test [3], 68%; in test [4], 23%. In addition, the “Behaviour in cAMP functional assay at hA3AR” value in test [5] is on record as “antagonist activity”. In test [5] (inhibition of NECA-induced cAMP accumulation), this compound yielded a Kb of 114 nM.

The values are drawn from PMC8071163, “Design and Synthesis of 2,6-Disubstituted-4′-Selenoadenosine-5′-N,N-Dimethyluronamide Derivatives as Human A3 Adenosine Receptor Antagonists” (Pharmaceuticals, 2021).
